Experimental data taken from US9084760B2, “Increasing glutathione levels for therapy” (priority 2008, dated 2015).

What was measured:
Plasma lipid peroxides = Plasma lipid peroxides in nondiabetic elderly humans after 2-week supplementation (Example 4); type: in vivo; settings: after 2-week oral supplementation
Description: (§1) Eight nondiabetic elderly humans were studied in the basal state, and after 2-week oral supplementation with either n-acetylcysteine alone, glycine alone, or both supplements, with a 2-week washout period in-between. […] Plasma lipid peroxides were measured as a marker of ongoing damage due to oxidative stress. Eight younger adult subjects were also recruited as controls.

red blood cell GSH = assay: Red blood cell GSH concentration and ASR in nondiabetic elderly humans after 2-week supplementation (Example 4); type: in vivo; settings: after 2-week oral supplementation
Description: as §1

lipid peroxides (ROOH) = assay: Plasma ROOH and glucose in diabetics after 2-week supplementation (Example 3); type: in vivo, humans; settings: after 2-week dietary supplementation
Description: (§2) Eight diabetics were studied before and after 2-week dietary supplementation with either n-acetylcysteine (NAC), glycine, or both. Subjects received infusions of ^2H2-glycine to measure the concentration, fractional synthetic rates (FSR) and absolute synthetic rates (ASR) of red cell GSH. Plasma ROOH and glucose levels were measured. Eight non-diabetic subjects were studied as controls.

red cell GSH = assay: Red cell GSH concentration, FSR and ASR in diabetics after 2-week supplementation (Example 3); type: in vivo, humans; settings: after 2-week dietary supplementation, Mean±SE
Description: as §2

NCC(=O)O [glycine]
concentrations of lipid peroxides (Plasma lipid peroxides): 3.57±1.13 mmol/L ROOH | GSH concentration (red blood cell GSH): 1.21±0.27 mmol/L RBC | GSH-ASR (red blood cell GSH): 0.71 ± 0.05 mmol/L/day

CC(=O)N[C@@H](CS)C(=O)O [n-acetylcysteine]
glycemia (lipid peroxides (ROOH)): remained unchanged | ROOH concentrations (lipid peroxides (ROOH); plasma): 5.78±0.78 | concentrations of lipid peroxides (Plasma lipid peroxides): 3.22±1.29 mmol/L ROOH | GSH concentration (red blood cell GSH): 1.37±0.30 mmol/L RBC | GSH-ASR (red blood cell GSH): 0.92 ± 0.23 mmol/L/day | GSH ASR (red cell GSH): 0.93 ± 0.18 mmol/L/day | GSH FSR (red cell GSH): 61±2 %/d | GSH concentration (red cell GSH): 1.61±0.15 mmol/LRBC
